The record followed here is patent publication US5559106A, “Heterocyclic compounds, their use and preparation” (Novo Nordisk A/S, priority 1993, dated 1996).

For assay [1], the system named is quisqualic acid stimulated spreading depression in chicken retina. As to the kind of experiment: Spreading Depression (Test 2), quisqualate stimulated, chicken retina. It is filed as cell-based. As to conditions: Gallus gallus, 0.25 h, quisqualate 1 μg/ml, 26° C., 15 min incubation with test compound, read-out: TEST 2 IC50 (50% maximal inhibition of quisqualic acid stimulated spreading depression). How it is done: (§1) The pharmacological properties of the compounds of the present invention can be illustrated by determining their capability for displacing radioactively labelled 2-amino-3-hydroxy-5-methyl-4-isoxazolepropionic acid (AMPA) from the AMPA type receptors.
The antagonism is measured by determining the IC50 value which represents the concentration which produces a 50% maximal inhibition of quisqualic acid stimulated spreading depression in chicken retina.
Spreading Depression (Test 2)
Chicks (3-10 days old) were decapitated, the eyes enucleated and sectioned along the equatorial plane. […]
The eyes were initially incubated in normal P.S.S. for 15-30 min. and then transferred to P.S.S. containing quisqualate (1 μg/ml). […] The time taken for an S.D. to start in each eye was measured.
After a further 15 min. of incubation in normal P.S.S. the eyes were transferred to normal P.S.S. containing the test compound and incubated for 15 min. […] The time taken for an S.D. to start in each eye was measured again. The eyes were then placed back in normal P.S.S. and after 15 min. the time taken for S.D. to start was measured again, in order to assess the degree of recovery from any drug effects. […]

A further assay deals with AMPA type receptors. Put plainly: 3H-AMPA Binding (Test 1), rat cerebral cortical membrane homogenate. Particulars: 3H-AMPA 5 nM, rat cerebral cortical membranes, pH 7.1, 0° C., 30 min; read-out: TEST 1 IC50 (displacement of 50% of the specific binding of 3H-AMPA). The procedure: as §1
The displacement activity of the compounds may be shown by determining the IC50 value which represents the concentration (μM) which causes a displacement of 50% of the specific binding of ^3 H-AMPA.
^3 H-AMPA Binding (Test 1)
500 μl of thawed rat cerebral cortical membrane homogenate in Tris-HCl (30 mM), CaCl2 (2.5 mM) and KSCN (100 mM) pH 7.1 were incubated at 0° C. for 30 min. with 25 μl ^3 H-AMPA (5 nM final concentration) and the test compound and buffer. Nonspecific binding was determined by incubation with L-glutamic acid (600 μM final concentration). The binding reaction was terminated by adding 5 ml of ice-cold buffer followed by filtration through Whatman GF/C glass fibre filters and 2×5 ml wash with ice-cold buffer. Bound radioactivity was measured by scintillation counting. IC50 was determined by Hill analysis of at least four concentrations of test compound.

The term IC50 denotes the concentration that inhibits the measured activity by half. Consider `O=c1[nH]c2cc(C(F)(F)F)ccc2n2c(CP(=O)(O)O)nnc12` [Example 20, 1-Phosphonomethyl-7-trifluoromethyl[1,2,4]triazolo[4,3-a]quinoxalin-4(5H)-one], for which the figures for the IC50 (in assay [1]; at AMPA type receptors) were 400 nM and 260 nM, respectively.

As to `O=c1[nH]c2c3ccccc3ccc2n2c(CP(=O)(O)O)nnc12` [Example 30, 3-Phosphonomethylbenzo[f]-1,2,4-triazolo[4,3-a]quinoxalin-12(11H)-one], the 50% inhibitory concentration (IC50) in assay [1] was determined as 1400 nM; on AMPA type receptors, 480 nM.
